Patent publication US20030232101A1, “Topical formulations of resorcinols and cannibinoids and methods of use” (Immugen Pharmaceuticals, Inc., priority 2002, published 2003)
In brackets after ≈: the same amount, converted by molar mass.

What was measured:
Assay type in all cases: cell-based
[1] = test system: HeLa CD4 LTR β-gal cells; assay: Compound toxicity in the fusion assay, sister plates, MTS dye reduction; settings: no timed addition; 48 h
Experimental: (§1) At assay termination the assay plates were stained with the soluble tetrazolium-based dye MTS (CellTiter96® Reagent Promega) to determine cell viability and quantify compound toxicity. MTS is metabolized by the mitochondria enzymes of metabolically active cells to a soluble formazan product, allowing the rapid quantitative analysis cell viability and compound cytotoxicity. […] At termination of the assay 20 μL of MTS reagent was added per well and incubated for 4 h at 37° C. Adhesive plate sealers were used in place of the lids, the sealed plate was inverted several times to mix the soluble formazan product and the plate was read spectrophotometrically at 490 nm with a Molecular Devices Vmax plate reader.
(§2) Twenty-four h prior to initiation of the assay cells were trypsinized, counted and 5×10^3 cells placed in a 0.2 cm well in media without selection antibiotics. To initiate the fusion assay HeLa CD4 LTR β-gal (5×10^3 cells per 0.2 cm well) were incubated with compound for 1 h at 37° C. HL2/3 cells (5×10^3) were added to the 0.2 cm well and the incubation continued for 48 h. At 48 h the wells were washed 1 time with PBS and β-galactosidase enzyme expression determined by chemiluminescence per manufacturers instructions (Tropix Gal-screen™, Tropix, Bedford, Mass.). Compound toxicity was monitored on sister plates using MTS dye reduction.

[2] = test system: HeLa CD4 LTR β-gal cells; assay: Compound toxicity in the attachment assay, sister plate, XTT or MTS (Example 2)
Experimental: (§3) This assay detects compounds that block virus attachment using HeLa CD4 LTR β-gal cells. HeLa CD4 LTR β-gal cells were cultured with selection antibiotics. Twenty-four h prior to initiation of the assay, the cells were trypsinized, counted and plated in a 0.2 cm well in media without selection antibiotics. At 24 h media is removed and compound in media placed on the cells and incubated for 15 min at 37° C. A known titer of the IIIB strain of HIV-1 was then added to the wells and the incubation continued for 1 to 2 h. At the end of the incubation the wells were washed 2 times with media and the culture continued for 40 to 48 h. At termination of the assay, media is removed and β-galactosidase enzyme expression determined by chemiluminescence per manufacturer's instructions (Tropix Gal-screen, Bedford Mass.). Compound toxicity is monitored on a sister plate by XTT or MTS dye reduction. All determinations are performed in triplicate with serial_Log10 dilution of the test materials. The virus adsorption interval of 1 to 2 h was sufficiently short that AZT, which requires phosphorylation to achieve its active tri-phosphate form (AZT-TTP), is not active in this assay.

[3] = test system: HIV-1; assay: HeLa CD4 LTR β-gal HIV-1 attachment assay (Experimental Example 1); settings: Human immunodeficiency virus 1, HeLa
[4] = test system: HeLa CD4 LTR β-gal cells; assay: Compound toxicity in the fusion assay, sister plate, XTT or MTS (Example 2)
Experimental: (§4) The fusion assay assesses the ability of compounds to block cell-to-cell fusion mediated by HIV-1 Env and CD4 expressed on separate cells. This assay is sensitive to inhibitors of both the gp 120/CD4 interaction and inhibitors of the X4 coreceptor. HeLa CD4 LTR β-gal cells were plated in microtiter wells and diluted compounds are added and allowed to incubate at 37° C. for 1 hr prior to the addition of HL2/3 cells. The incubation was then continued for 40 to 48 h, after which fusion is monitored by measurement of β-galactosidase enzyme expression, detectable by chemiluminescence (Tropix Gal-screen, Tropix, Bedford, Mass.). Compound toxicity is monitored on a sister plate using XTT or MTS dye reduction. All determinations are performed in triplicate with serial_Log10 dilution of the test materials.

[5] = test system: cell-to-cell fusion mediated by HIV-1 Env and CD4; assay: Fusion assay, HeLa CD4 LTR β-gal and HL2/3 cells (Experimental Example 2); settings: Human immunodeficiency virus 1, HL2/3, read-out: Fusion Assay IC50
Experimental: as §4

[6] = test system: IIIB strain of HIV-1; assay: Virus attachment assay, HeLa CD4 LTR β-gal cells (Experimental Example 2); settings: Human immunodeficiency virus 1, IIIB, HeLa, read-out: Attachment Assay IC50
Experimental: as §3, with “materials.” for “materials. The virus adsorption interval of 1 to 2 h was sufficiently short that AZT, which requires phosphorylation to achieve its active tri-phosphate form (AZT-TTP), is not active in this assay.”

[7] = test system: HeLa CD4 LTR β-gal cells; assay: Compound toxicity in the attachment assay, sister plates, MTS dye reduction
Experimental: as §1
The attachment assay was performed with the HeLa CD4 LTR β-gal cells available from the AIDS Research and Reference Reagent Repository. […] HeLa CD4 LTR β-gal cells express cell surface CD4 and contain an LTR β-galactosidase reporter construct. Upon infection either the Tat protein incorporated into the virion or new Tat produced following virus integration and transcription trans-activates the LTR β-gal reporter, leading to expression of the β-galactosidase enzyme. HeLa CD4 LTR β-gal cells are routinely cultured with the required selection antibiotics and screened for mycoplasma contamination. Twenty-four h prior to initiation of the assay cells were trypsinized, counted and 1×10^4 cells placed in a 0.2 cm well in media without selection antibiotics. […] A known titer of virus was then added to the wells and the incubation continued for 1 h. At the end of the incubation the wells were washed 6 times with media and the culture continued for 48 h. At 48 h the wells were washed one time with PBS and β-galactosidase enzyme expression determined by chemiluminescence per manufacturers instructions (Tropix Gal-screen™, Tropix, Bedford, Mass.). Compound toxicity was monitored on sister plates using MTS dye reduction.

[8] = test system: interaction of HIV gp 120 with CD4 (HeLa CD4 LTR β-gal / HL2/3 cell fusion); assay: HeLa CD4 LTR β-gal/HL2/3 HIV-1 fusion assay (Experimental Example 1); settings: Human immunodeficiency virus 1, HeLa, 48 h, read-out: Antiviral Activity IC50
From the text: This assay uses the HeLa CD4 LTR β-gal and HL2-3 cells available from the AIDS Research and Reference Reagent Repository. The fusion assay utilizes HeLa CD4 LTR β-gal cells with HL2/3 cells as a fusion partner via the interaction of HIV gp 120 with CD4. HL2/3 cells express HIV-1 Env on their cell surface and contain an HIV-1 Tat expression cassette. Upon syncytium formation and plasma membrane fusion, cytoplasmic mixing of the HL2/3 and HeLa CD4 LTR b-gal cell contents results in the transactivation of the LTR and β-Galactosidase expression is then directly related to […] cell membrane fusion. Thus, these two mechanistic assays can be used to confirm and identify a virus entry-based target of the compound. Additionally, because the attachment assay uses cell-free virus this assay can be used to show applicability to cell-free virus transmission.
as §2
In addition to assessing inhibition of attachment with HeLa CD4 LTR β-gal cells a virus fusion assay was perfoed using HeLa CD4 LTR β-gal and HL2/3 cells. No timed addition of compound was employed, but rather the assay was performed to verify the effects of the compounds on the HeLa CD4 LTR β-gal cells β-galactosidase expression.

In the case of `COc1cc(-c2ccc(/N=N/c3ccc4c(S(=O)(=O)O)cc(S(=O)(=O)O)c(N)c4c3O)c(OC)c2)ccc1/N=N/c1ccc2c(S(=O)(=O)O)cc(S(=O)(=O)O)c(N)c2c1O` [CSB, Chicago Sky Blue, reference compound], the TC50 [1] was greater than 10 µg/mL, the “Attachment Assay TC50” value [2] was greater than 10 µg/mL and the IC50 ([3]; Experiment 1, pretreat 0 h) was 1.1 µg/mL (≈ 1.22 µM). For the same compound, the IC50 ([3]; Experiment 1, pretreat 4 h) was 1.71 µg/mL (≈ 1.89 µM), the IC50 ([3]; Experiment 1, pretreat 24 h) was 1.3 µg/mL (≈ 1.44 µM) and the IC50 ([3]; Experiment 2, pretreat 0 h) was 0.17 µg/mL (≈ 0.188 µM). The IC50 ([3]; Experiment 2, pretreat 4 h) was 2.11 µg/mL (≈ 2.33 µM), the IC50 ([3]; Experiment 2, pretreat 24 h) was 4.7 µg/mL (≈ 5.19 µM) and the “Fusion Assay TC50” value [4] was greater than 100 µg/mL. For the same compound, the IC50 [5] was 0.41 µg/mL (≈ 0.453 µM), the IC50 [6] was 0.63 µg/mL (≈ 0.696 µM) and the TC50 ([7]; Experiment 1, pretreat 0 h) was greater than 10 µg/mL. It also gave a TC50 ([7]; Experiment 1, pretreat 4 h) greater than 10 µg/mL, a TC50 ([7]; Experiment 1, pretreat 24 h) greater than 10 µg/mL and a TC50 ([7]; Experiment 2, pretreat 0 h) greater than 10 µg/mL. The TC50 ([7]; Experiment 2, pretreat 4 h) was greater than 10 µg/mL, the TC50 ([7]; Experiment 2, pretreat 24 h) was greater than 10 µg/mL and the IC50 [8] was 1.75 µg/mL (≈ 1.93 µM).
